pEC50: −log10 of the molar value. One block for each compound: values may come before it.
Tests used:
Format in all cases: biochemical
Mdn1 (Midasin) [1] = biological target: T1, Mdn1 (Midasin) (Schizosaccharomyces pombe, UniProt O94248); assay: NADH-coupled and radioactive ATPase assays
T1 construct: recombinant full-length Mdn1 (hexahistidine-tagged, insect cells)

Mdn1 (Midasin) [2] = biological target: T1, Mdn1 (Midasin); assay: ATP hydrolysis by purified enzyme (radioactive and NADH-coupled ATPase assays)
Mdn1 (Midasin) [3] = biological target: T1, Mdn1 (Midasin); assay: NADH-coupled steady-state ATPase assay, dose-response (saturates at […] inhibition)

T1 sequence (O94248 whole entry): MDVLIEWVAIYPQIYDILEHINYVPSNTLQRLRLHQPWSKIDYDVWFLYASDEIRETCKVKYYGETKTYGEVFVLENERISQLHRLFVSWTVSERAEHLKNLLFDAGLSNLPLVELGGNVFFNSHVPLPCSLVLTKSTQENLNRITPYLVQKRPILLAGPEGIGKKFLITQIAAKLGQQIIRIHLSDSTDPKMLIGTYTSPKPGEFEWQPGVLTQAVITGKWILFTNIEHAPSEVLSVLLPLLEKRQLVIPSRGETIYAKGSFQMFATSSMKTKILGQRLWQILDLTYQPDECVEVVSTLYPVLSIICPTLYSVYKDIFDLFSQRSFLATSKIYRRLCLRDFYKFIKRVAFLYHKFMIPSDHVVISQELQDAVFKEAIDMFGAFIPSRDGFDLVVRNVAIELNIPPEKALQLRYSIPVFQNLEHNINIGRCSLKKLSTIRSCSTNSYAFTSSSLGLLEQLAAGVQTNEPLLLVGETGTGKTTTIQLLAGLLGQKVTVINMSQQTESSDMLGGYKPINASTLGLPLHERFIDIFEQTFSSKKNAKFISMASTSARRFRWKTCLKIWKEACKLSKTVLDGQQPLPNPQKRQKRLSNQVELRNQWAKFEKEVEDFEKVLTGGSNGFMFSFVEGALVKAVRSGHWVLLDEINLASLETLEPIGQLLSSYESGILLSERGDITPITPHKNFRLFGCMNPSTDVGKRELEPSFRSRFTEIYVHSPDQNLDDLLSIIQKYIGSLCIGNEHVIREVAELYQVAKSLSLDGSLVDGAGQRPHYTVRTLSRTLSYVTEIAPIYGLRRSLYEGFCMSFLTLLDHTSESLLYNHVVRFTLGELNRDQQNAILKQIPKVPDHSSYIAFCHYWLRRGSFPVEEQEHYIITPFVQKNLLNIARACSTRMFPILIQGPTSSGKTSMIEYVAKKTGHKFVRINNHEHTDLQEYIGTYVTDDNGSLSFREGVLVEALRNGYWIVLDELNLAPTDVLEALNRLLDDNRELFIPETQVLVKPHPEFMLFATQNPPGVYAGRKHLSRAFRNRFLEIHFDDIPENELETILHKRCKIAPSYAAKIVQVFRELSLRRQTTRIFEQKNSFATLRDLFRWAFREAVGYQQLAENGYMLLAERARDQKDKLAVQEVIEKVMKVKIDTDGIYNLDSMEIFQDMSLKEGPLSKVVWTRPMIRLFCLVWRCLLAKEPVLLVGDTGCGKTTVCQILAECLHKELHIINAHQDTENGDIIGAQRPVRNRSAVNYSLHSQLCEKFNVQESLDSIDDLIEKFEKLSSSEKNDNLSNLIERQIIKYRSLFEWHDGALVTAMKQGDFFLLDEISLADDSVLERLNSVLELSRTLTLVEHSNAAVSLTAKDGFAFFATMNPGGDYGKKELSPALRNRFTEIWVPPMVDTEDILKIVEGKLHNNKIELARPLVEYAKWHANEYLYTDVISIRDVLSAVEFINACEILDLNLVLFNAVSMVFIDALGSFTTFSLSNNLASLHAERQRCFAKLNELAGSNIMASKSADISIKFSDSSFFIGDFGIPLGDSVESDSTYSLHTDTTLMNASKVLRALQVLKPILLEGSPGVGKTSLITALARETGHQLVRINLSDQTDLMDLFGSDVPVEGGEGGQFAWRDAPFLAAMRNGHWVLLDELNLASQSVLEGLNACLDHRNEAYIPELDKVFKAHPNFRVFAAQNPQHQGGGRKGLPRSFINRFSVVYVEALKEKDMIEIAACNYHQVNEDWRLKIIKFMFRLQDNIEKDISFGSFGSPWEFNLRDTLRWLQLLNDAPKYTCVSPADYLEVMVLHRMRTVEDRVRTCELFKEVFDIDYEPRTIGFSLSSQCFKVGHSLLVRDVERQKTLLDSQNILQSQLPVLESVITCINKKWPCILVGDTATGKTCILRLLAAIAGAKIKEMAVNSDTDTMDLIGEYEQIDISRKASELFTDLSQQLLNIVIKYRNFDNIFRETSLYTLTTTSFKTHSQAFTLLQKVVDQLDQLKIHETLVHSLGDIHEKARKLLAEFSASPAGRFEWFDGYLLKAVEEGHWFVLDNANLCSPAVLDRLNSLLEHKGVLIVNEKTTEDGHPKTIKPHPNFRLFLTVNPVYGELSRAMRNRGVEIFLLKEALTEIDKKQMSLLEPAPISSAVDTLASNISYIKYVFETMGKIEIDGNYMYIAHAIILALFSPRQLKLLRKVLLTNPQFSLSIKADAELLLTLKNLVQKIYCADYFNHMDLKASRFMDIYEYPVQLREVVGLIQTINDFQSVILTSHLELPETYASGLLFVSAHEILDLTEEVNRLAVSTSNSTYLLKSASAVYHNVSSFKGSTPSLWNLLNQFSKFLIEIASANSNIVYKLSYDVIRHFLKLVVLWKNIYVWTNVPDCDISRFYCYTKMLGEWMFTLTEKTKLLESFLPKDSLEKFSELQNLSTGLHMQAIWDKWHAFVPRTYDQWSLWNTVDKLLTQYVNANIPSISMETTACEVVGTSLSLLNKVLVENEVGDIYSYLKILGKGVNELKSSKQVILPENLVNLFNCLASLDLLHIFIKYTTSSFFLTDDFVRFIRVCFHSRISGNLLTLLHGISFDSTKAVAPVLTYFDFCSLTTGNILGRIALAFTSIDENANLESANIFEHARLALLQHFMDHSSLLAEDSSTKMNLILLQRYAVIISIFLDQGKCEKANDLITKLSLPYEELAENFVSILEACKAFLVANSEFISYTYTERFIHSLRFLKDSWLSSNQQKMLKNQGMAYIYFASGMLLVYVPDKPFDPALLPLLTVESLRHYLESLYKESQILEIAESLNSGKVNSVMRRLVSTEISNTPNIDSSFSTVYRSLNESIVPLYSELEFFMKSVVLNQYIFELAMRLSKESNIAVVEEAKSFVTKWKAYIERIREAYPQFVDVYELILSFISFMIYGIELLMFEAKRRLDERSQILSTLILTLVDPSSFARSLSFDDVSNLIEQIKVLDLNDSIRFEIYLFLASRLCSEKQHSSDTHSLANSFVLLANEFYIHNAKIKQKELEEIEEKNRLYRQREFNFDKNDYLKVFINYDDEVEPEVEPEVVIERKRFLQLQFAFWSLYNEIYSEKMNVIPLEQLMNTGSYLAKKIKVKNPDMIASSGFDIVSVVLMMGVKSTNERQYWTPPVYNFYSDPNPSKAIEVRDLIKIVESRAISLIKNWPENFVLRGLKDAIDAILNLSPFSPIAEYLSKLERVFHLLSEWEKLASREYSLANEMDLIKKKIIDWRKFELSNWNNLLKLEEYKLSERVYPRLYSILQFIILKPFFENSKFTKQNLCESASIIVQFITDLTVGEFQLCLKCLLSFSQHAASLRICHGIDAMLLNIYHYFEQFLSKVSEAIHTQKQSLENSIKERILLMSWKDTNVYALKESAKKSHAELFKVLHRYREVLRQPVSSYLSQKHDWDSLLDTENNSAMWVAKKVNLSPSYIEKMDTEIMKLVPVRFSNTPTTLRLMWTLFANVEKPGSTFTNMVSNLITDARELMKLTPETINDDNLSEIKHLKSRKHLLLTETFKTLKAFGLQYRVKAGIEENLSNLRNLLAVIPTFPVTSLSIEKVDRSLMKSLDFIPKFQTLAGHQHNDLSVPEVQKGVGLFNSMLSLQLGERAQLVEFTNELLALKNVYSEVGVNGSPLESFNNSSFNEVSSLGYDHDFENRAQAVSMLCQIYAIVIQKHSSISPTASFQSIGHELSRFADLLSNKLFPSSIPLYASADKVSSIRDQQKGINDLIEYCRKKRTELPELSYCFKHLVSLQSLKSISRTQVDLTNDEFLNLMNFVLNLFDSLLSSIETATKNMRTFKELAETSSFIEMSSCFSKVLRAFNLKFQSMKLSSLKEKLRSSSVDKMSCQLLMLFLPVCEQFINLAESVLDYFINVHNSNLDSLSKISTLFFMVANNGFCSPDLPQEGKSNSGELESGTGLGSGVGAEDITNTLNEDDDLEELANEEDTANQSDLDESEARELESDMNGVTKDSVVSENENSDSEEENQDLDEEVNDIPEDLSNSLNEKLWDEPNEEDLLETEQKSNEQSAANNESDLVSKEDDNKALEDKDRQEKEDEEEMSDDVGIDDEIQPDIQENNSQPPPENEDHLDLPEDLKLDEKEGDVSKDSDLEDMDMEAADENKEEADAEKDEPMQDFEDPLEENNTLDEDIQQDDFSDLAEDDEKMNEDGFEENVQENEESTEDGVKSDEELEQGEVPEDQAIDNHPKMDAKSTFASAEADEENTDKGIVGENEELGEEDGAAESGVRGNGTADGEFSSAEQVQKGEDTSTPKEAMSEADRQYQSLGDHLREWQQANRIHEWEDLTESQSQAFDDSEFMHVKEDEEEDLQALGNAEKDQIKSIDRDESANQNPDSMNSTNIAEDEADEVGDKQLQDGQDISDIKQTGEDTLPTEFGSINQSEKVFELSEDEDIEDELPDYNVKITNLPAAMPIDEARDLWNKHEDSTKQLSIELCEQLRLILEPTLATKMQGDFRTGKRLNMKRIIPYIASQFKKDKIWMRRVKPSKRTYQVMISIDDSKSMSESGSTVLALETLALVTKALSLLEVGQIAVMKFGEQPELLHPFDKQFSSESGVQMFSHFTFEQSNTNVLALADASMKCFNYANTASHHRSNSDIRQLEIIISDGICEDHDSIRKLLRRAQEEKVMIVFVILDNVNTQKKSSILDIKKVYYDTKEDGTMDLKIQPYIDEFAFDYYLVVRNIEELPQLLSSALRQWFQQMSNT

- inhibition at 1 µM (Mdn1 (Midasin) [1]): ~40%
Compound: C=C(C)CSc1nnc2c(n1)[nH]c1ccccc12 [compound 1, Rbin-1]

Compound: Nc1ncnc2c1ncn2[C@@H]1O[C@H](COP(=O)(O)OP(=O)(O)OP(=O)(O)O)[C@@H](O)[C@H]1O [ATP]
- ATP hydrolysis by purified enzyme (radioactive and NADH-coupled ATPase assays) (Mdn1 (Midasin) [2]): ~ 1.0 s^–1 (specific activity at 1 mM MgATP)

- pEC50 (Mdn1 (Midasin) [3]): ~6.52
Compound: C=C(C)CSc1nnc2c(n1)[nH]c1cc(Br)ccc12 [compound 15, Rbin-2]

Source: article PMC5116814, “Potent, Reversible, and Specific Chemical Inhibitors of Eukaryotic Ribosome Biogenesis” (Cell, 2016)
